Data as given in patent publication US10611731B2, “5-methyl-6-phenyl-4,5-dihydro-2H-pyridazin-3-one derivative” (OTSUKA PHARMACEUTICAL CO., LTD., priority 2016, dated 2020).

What follows are compounds tested on human childhood brain tumor cell lines (PFSK-1) (assay: Growth inhibitory activity against PFSK-1 cells (WST-8, Cell Counting Kit-8)). Conditions: Homo sapiens, 72 h, 3 days incubation with test compound, WST-8 OD 450/630 nm, read-out: IC50 (concentration inhibiting 50% of the cell growth).
Assay type: cell-based
Method: The growth inhibitory activity against human childhood brain tumor cell lines (PFSK-1) was measured with WST-8 reagent [2-(2-methoxy-4-nitrophenyl)-3-(4-nitrophenyl)-5-(2,4-disulfophenyl)-2H-tetrazolium monosodium salt, Cell Counting Kit-8™], according to the method described in Tominaga, H. et al., Anal. Commun., 1999, 36, 47-50. Briefly, PFSK-1 was seeded in 96-well microplate at 100 μL/well with Roswell Park Memorial Institute (RPMI) 1640 medium containing 10% fetal bovine serum (FBS), and the cells were incubated in the presence of 5% carbon dioxide (CO2) at 37° C. for 24 hours. 50 μL of each test compound diluted with the medium was added to each well, and then the cells were incubated further for 3 days. After the incubation, 15 μL of Cell Counting Kit-8™ was added to each well, and the cells were incubated for one and half hours. Then, optical density (OD) values at measurement wavelength 450 nm and reference wavelength 630 nm were measured and the difference thereof was calculated. From the calculated difference, the OD value difference (at measurement wavelength 450 nm and reference wavelength 630 nm) of the control well which includes no cell was subtracted to afford cell-growth activity in each well.
The cell growth inhibitory activity of each test compound was calculated by comparing the cell-growth activity with each test compound to the cell-growth activity without any test compound (control), and each IC50 (nM) which is the concentration inhibiting 50% of the cell growth was calculated.

Point of comparison: `Cc1cc(C2=NNC(=O)C[C@H]2C)cc(F)c1OCC(C)(C)CO` [Example 125, (5R)-(−)-6-[3-fluoro-4-(3-hydroxy-2,2-dimethylpropoxy)-5-methylphenyl]-5-methyl-4,5-dihydro-2H-pyridazin-3-one], IC50 1.5 nM. Against it:
- CC1CC(=O)NN=C1c1ccc(OC/C=C/CO)c(Cl)c1F (stereo not drawn) [Example 90, 6-[3-Chloro-2-fluoro-4-[(E)-4-hydroxy-2-butenyloxy]phenyl}-5-methyl-4,5-dihydro-2H-pyridazin-3-one] — 2.6-fold higher, 3.9 nM
- CC1CC(=O)NN=C1c1ccc(OCCCCCO)c(Cl)c1F (stereo not drawn) [Example 91, 6-[3-Chloro-2-fluoro-4-(5-hydroxypentoxy)phenyl]-5-methyl-4,5-dihydro-2H-pyridazin-3-one] — 4-fold higher, 6 nM
- Cc1c(OC/C=C\CO)ccc(C2=NNC(=O)CC2C)c1F (stereo not drawn) [Example 92, 6-[2-Fluoro-4-[(Z)-4-hydroxy-2-butenyloxy]-3-methylphenyl]-5-methyl-4,5-dihydro-2H-pyridazin-3-one] — 3.3-fold higher, 4.9 nM
- CC1CC(=O)NN=C1c1ccc(OC/C=C\CO)c(F)c1F (stereo not drawn) [Example 93, 6-{2,3-Difluoro-4-[(Z)-4-hydroxy-2-butenyloxy]phenyl}-5-methyl-4,5-dihydro-2H-pyridazin-3-one] — 2.1-fold higher, 3.1 nM
- CC1CC(=O)NN=C1c1cc(F)c(OC/C=C\CO)c(Cl)c1 (stereo not drawn) [Example 94, 6-{3-Chloro-5-fluoro-4-[(Z)-4-hydroxy-2-butenyloxy]phenyl}-5-methyl-4,5-dihydro-2H-pyridazin-3-one] — 2-fold higher, 3 nM
- CC1CC(=O)NN=C1c1cc(F)c(OC/C=C\CO)c(Br)c1 (stereo not drawn) [Example 95, 6-{3-Bromo-5-fluoro-4-[(Z)-4-hydroxy-2-butenyloxy]phenyl}-5-methyl-4,5-dihydro-2H-pyridazin-3-one] — 2-fold higher, 3 nM
- C=Cc1c(OC/C=C\CO)ccc(C2=NNC(=O)CC2C)c1F (stereo not drawn) [Example 96, 6-{2-Fluoro-4-[(Z)-4-hydroxy-2-butenyloxy]-3-vinylphenyl}-5-methyl-4,5-dihydro-2H-pyridazin-3-one] — 2.6-fold higher, 3.9 nM
- CCc1c(OCCCCO)ccc(C2=NNC(=O)CC2C)c1F (stereo not drawn) [Example 97, 6-[3-Ethyl-2-fluoro-4-(4-hydroxybutoxy)phenyl]-5-methyl-4,5-dihydro-2H-pyridazin-3-one] — 5.7-fold higher, 8.6 nM
- Cc1cc(C2=NNC(=O)CC2C)cc(Cl)c1OCC(C)(C)CCO (stereo not drawn) [Example 98, 6-[3-chloro-4-(4-hydroxy-2,2-dimethylbutoxy)-5-methylphenyl]-5-methyl-4,5-dihydro-2H-pyridazin-3-one] — 2.4-fold higher, 3.6 nM
- CC1CC(=O)NN=C1c1cc(F)c(OCC(C)(C)CCO)c(Cl)c1 (stereo not drawn) [Example 99, 6-[3-chloro-5-fluoro-4-(4-hydroxy-2,2-dimethylbutoxy)phenyl]-5-methyl-4,5-dihydro-2H-pyridazin-3-one] — lower, < 1 nM
- CC1CC(=O)NN=C1c1cc(Cl)c(OCC(C)(C)CCO)c(Cl)c1 (stereo not drawn) [Example 100, 6-[3,5-dichloro-4-(4-hydroxy-2,2-dimethylbutoxy)phenyl]-5-methyl-4,5-dihydro-2H-pyridazin-3-one] — within 1.5-fold, 1.6 nM
- Cc1cc(C2=NNC(=O)CC2C)cc(F)c1OCC(C)(C)CCO (stereo not drawn) [Example 101, 6-[3-Fluoro-4-(4-hydroxy-2,2-dimethylbutoxy)-5-methylphenyl]-5-methyl-4,5-dihydro-2H-pyridazin-3-one] — 5-fold higher, 7.5 nM
- CC1CC(=O)NN=C1c1ccc(OCC(C)(C)CCO)c(F)c1F (stereo not drawn) [Example 102, 6-[2,3-Difluoro-4-(4-hydroxy-2,2-dimethylbutoxy)phenyl]-5-methyl-4,5-dihydro-2H-pyridazin-3-one] — 2.3-fold higher, 3.4 nM
- CC1CC(=O)NN=C1c1ccc(OCC(C)(C)CCO)c(Cl)c1F (stereo not drawn) [Example 103, 6-[3-Chloro-2-fluoro-4-(4-hydroxy-2,2-dimethylbutoxy)phenyl]-5-methyl-4,5-dihydro-2H-pyridazin-3-one] — 1.7-fold higher, 2.6 nM
- CC(O)COc1ccc(C2=NNC(=O)CC2C)c(F)c1C#N (stereo not drawn) [Example 104, 2-fluoro-6-(2-hydroxypropoxy)-3-(4-methyl-6-oxo-4,5-dihydro-1H-pyridazin-3-yl)benzonitrile] — 3.5-fold higher, 5.2 nM
- CC1CC(=O)NN=C1c1ccc(OCC(C)(C)O)c(C#N)c1F (stereo not drawn) [Example 105, 2-Fluoro-6-(2-hydroxy-2-methylpropoxy)-3-(4-methyl-6-oxo-4,5-dihydro-1H-pyridazin-3-yl)benzonitrile] — 6-fold higher, 9 nM
- CC1CC(=O)NN=C1c1ccc(OCCCO)c(C#N)c1F (stereo not drawn) [Example 106, 2-fluoro-6-(3-hydroxypropoxy)-3-(4-methyl-6-oxo-4,5-dihydro-1H-pyridazin-3-yl)benzonitrile] — 4.3-fold higher, 6.4 nM
- CC1CC(=O)NN=C1c1ccc(OCC(F)(F)CO)c(F)c1F (stereo not drawn) [Example 108, 6-[4-(2,2-Difluoro-3-hydroxypropoxy)-2,3-difluorophenyl]-5-methyl-4,5-dihydro-2H-pyridazin-3-one] — 2.7-fold higher, 4.1 nM
- CC1CC(=O)NN=C1c1cc(Cl)c(OCC(F)(F)CO)c(Cl)c1 (stereo not drawn) [Example 109, 6-[3,5-dichloro-4-(2,2-difluoro-3-hydroxypropoxy)phenyl]-5-methyl-4,5-dihydro-2H-pyridazin-3-one] — within 1.5-fold, 1.6 nM
- CC1CC(=O)NN=C1c1ccc(OCC(F)(F)CO)c(Cl)c1F (stereo not drawn) [Example 110, 6-[3-Chloro-4-(2,2-difluoro-3-hydroxypropoxy)-2-fluorophenyl]-5-methyl-4,5-dihydro-2H-pyridazin-3-one] — 5.3-fold higher, 7.9 nM
- CC1CC(=O)NN=C1c1cc(F)c(OCC(F)(F)CO)c(Cl)c1 (stereo not drawn) [Example 111, 6-[3-Chloro-4-(2,2-difluoro-3-hydroxypropoxy)-5-fluorophenyl]-5-methyl-4,5-dihydro-2H-pyridazin-3-one] — 2-fold higher, 3 nM
- CC1CC(=O)NN=C1c1ccc(OCC(F)(F)CO)c(Br)c1F (stereo not drawn) [Example 112, 6-[3-bromo-4-(2,2-difluoro-3-hydroxypropoxy)-2-fluorophenyl]-5-methyl-4,5-dihydro-2H-pyridazin-3-one] — 1.5-fold higher, 2.3 nM
- Cc1cc(C2=NNC(=O)CC2C)cc(Cl)c1OCC(F)(F)CO (stereo not drawn) [Example 113, 6-[3-chloro-4-(2,2-difluoro-3-hydroxypropoxy)-5-methylphenyl]-5-methyl-4,5-dihydro-2H-pyridazin-3-one] — within 1.5-fold, 1.1 nM
- C=Cc1c(OCC(F)(F)CO)ccc(C2=NNC(=O)CC2C)c1F (stereo not drawn) [Example 114, 6-[4-(2,2-Difluoro-3-hydroxypropoxy)-2-fluoro-3-vinylphenyl]-5-methyl-4,5-dihydro-2H-pyridazin-3-one] — 2.2-fold higher, 3.3 nM
- Cc1c(OCC(F)(F)CO)ccc(C2=NNC(=O)CC2C)c1O (stereo not drawn) [Example 115, 6-[4-(2,2-difluoro-3-hydroxypropoxy)-2-hydroxy-3-methylphenyl]-5-methyl-4,5-dihydro-2H-pyridazin-3-one] — 3.9-fold higher, 5.9 nM
- Cc1cc(C2=NNC(=O)C[C@H]2C)cc(Cl)c1OCCO [Example 116, (5R)-(−)-6-[3-chloro-4-(2-hydroxyethoxy)-5-methylphenyl]-5-methyl-4,5-dihydro-2H-pyridazin-3-one] — 2.9-fold higher, 4.3 nM
- C[C@@H]1CC(=O)NN=C1c1cc(F)c(OCC(C)(C)O)c(F)c1 [Example 117, (5R)-(−)-6-[3,5-Difluoro-4-(2-hydroxy-2-methylpropoxy)phenyl]-5-methyl-4,5-dihydro-2H-pyridazin-3-one] — 2-fold higher, 3 nM
- C[C@@H]1CC(=O)NN=C1c1ccc(OCC(C)(C)O)c(Cl)c1F [Example 118, (5R)-(−)-6-[3-chloro-2-fluoro-4-(2-hydroxy-2-methylpropoxy)phenyl]-5-methyl-4,5-dihydro-2H-pyridazin-3-one] — lower, < 1 nM
- C[C@@H]1CC(=O)NN=C1c1cc(F)c(OCC2(O)CC2)c(Cl)c1 [Example 119, (5R)-(−)-6-{3-chloro-5-fluoro-4-[(1-hydroxycyclopropyl)methoxy]phenyl}-5-methyl-4,5-dihydro-2H-pyridazin-3-one] — 1.9-fold higher, 2.9 nM
- Cc1c(OCC(F)(F)CO)ccc(C2=NNC(=O)C[C@H]2C)c1F [Example 120, (5R)-(−)-6-[4-(2,2-difluoro-3-hydroxypropoxy)-2-fluoro-3-methylphenyl]-5-methyl-4,5-dihydro-2H-pyridazin-3-one] — 1.6-fold higher, 2.4 nM
- C[C@@H]1CC(=O)NN=C1c1cc(F)c(OCCCO)c(F)c1 [Example 121, (5R)-(−)-6-[3,5-Difluoro-4-(3-hydroxypropoxy)phenyl]-5-methyl-4,5-dihydro-2H-pyridazin-3-one] — 2.5-fold higher, 3.8 nM
- C[C@@H]1CC(=O)NN=C1c1ccc(OCC(C)(C)CO)c(Cl)c1F [Example 122, (5R)-(−)-6-[3-Chloro-2-fluoro-4-(3-hydroxy-2,2-dimethylpropoxy)phenyl]-5-methyl-4,5-dihydro-2H-pyridazin-3-one] — 2.7-fold higher, 4.1 nM
- C[C@@H]1CC(=O)NN=C1c1ccc(OCC2(O)CC2)c(F)c1F [Example 123, (5R)-(−)-6-[2,3-Difluoro-4-[(1-hydroxycyclopropyl)methoxy]phenyl]-5-methyl-4,5-dihydro-2H-pyridazin-3-one] — 2.2-fold higher, 3.3 nM
- C[C@@H]1CC(=O)NN=C1c1ccc(OCC(C)(C)O)c(F)c1F [Example 124, (5R)-(−)-6-[2,3-difluoro-4-(2-hydroxy-2-methylpropoxy)phenyl]-5-methyl-4,5-dihydro-2H-pyridazin-3-one] — 1.5-fold higher, 2.3 nM
- C[C@@H]1CC(=O)NN=C1c1ccc(OCCO)c(Cl)c1F [Example 126, (5R)-(−)-6-[3-Chloro-2-fluoro-4-(2-hydroxyethoxy)phenyl]-5-methyl-4,5-dihydro-2H-pyridazin-3-one] — 1.9-fold higher, 2.9 nM
